Measured values published in patent US10918585B2, “Anti-aging agent and anti-aging composition for skin” (SHOWA DENKO K.K., priority 2015, dated 2021).

What was measured:
elastin genes = assay: Expression of elastin genes in normal human fibroblasts (quantitative real-time PCR, standardized to GAPDH); type: cell-based; details: NB1RGB cells, 0.001 w/v % myo-inositol, 24 hours, purified water = 1.00
Experimental: (§1) The gene expression of collagen and elastin in normal human fibroblasts was examined. Further, it has been known that a decrease in expression level of collagen and elastin due to cellular aging causes wrinkles.
(§2) NB1RGB cells (purchased from Riken BioResource Center), which are normal human fibroblasts, were seeded in a plastic dish at a seeding density of 10000 cells/cm^2 and cultured in Dulbecco's Modified Eagle's medium (DMEM) (manufactured by Sigma-Aldrich Corporation) containing 10% fetal bovine serum for 24 hours. Thereafter, each inositol derivative of Examples 1 to 6 and Comparative Example 1 in a state of being dissolved in purified water was added to the medium at a final concentration of 0.01 w/v % and further cultured for 24 hours. […]
(§3) Next, total RNA was extracted from cells of each group to synthesize cDNA. Next, the expression levels of collagen genes and elastin genes in NB1RGB cells of each group were quantified by performing quantitative real-time PCR using the cDNA as a template. Further, the expression level of glyceraldehyde-3-phospahte dehydrogenase (GAPDH), which is a housekeeping gene, was quantified as an internal standard gene, and the expression levels of collagen genes and elastin genes were respectively standardized based on the expression level of the GAPDH genes in the NB1RGB cells of each group. […]

collagen genes = assay: Expression of collagen genes in normal human fibroblasts (quantitative real-time PCR, standardized to GAPDH); type: cell-based; details: NB1RGB cells, 24 hours
Experimental: as §1, §2, §3

In the case of `O[C@H]1[C@H](O)[C@@H](O)[C@H](O)[C@@H](O)[C@H]1O` [myo-Inositol], the “Expression level of genes (relative value) Elastin” value (elastin genes) is reported as 1.23 relative value, the “Expression level of genes (relative value) Collagen” value (collagen genes; 0.001 w/v % myo-inositol, standardized to GAPDH, purified water = 1.00) is reported as 0.54 relative value and the “Expression of collagen genes compared to the purified water as a control (in words)” value (collagen genes; inositol derivatives 0.01 w/v %, myo-inositol 0.001 w/v %) is reported as “a decrease in expression of collagen genes was shown”.
